Measured values taken from the supplement of paper PMC10883282.

Tests used:
Experiment in all cases: relative viability vs DMSO control (72 h) (fraction); higher = more viable cells
[1] = test system: G401
In short: (§1)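 Sarcoma cell lines in 384-well plates, seeded to reach 80–90% confluence, were given compound after 24 h and kept 72 h at 37 °C, 5% CO2, with 0.1% DMSO vehicle and a 5 µM positive control. Relative viability came from ATPLite as percent growth, averaged over up to triplicate wells. On the rescaled values, 1 equals full and 0 equals none.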

[2] = test system: HS729
In short: as §1

[3] = test system: HT1080
In short: as §1

[4] = test system: KHOS-240S
In short: as §1

[5] = test system: KHOS-NP
In short: as §1

[6] = test system: RD-ES
In short: as §1

[7] = test system: RD
In short: as §1

[8] = test system: SK-LMS-1
In short: as §1

[9] = test system: SW1353
In short: as §1

[10] = test system: SW684
In short: as §1

[11] = test system: SW872
In short: as §1

[12] = test system: SYO-1
In short: as §1

O=c1sn(-c2cccc3ccccc23)c(=O)n1Cc1ccccc1 [Tideglusib]
Details | relative viability
[1], 0.00017 µM | 1.08
[1], 0.00051 µM | 1.12
[1], 0.00152 µM | 1.08
[1], 0.00457 µM | 1.1
[1], 0.01372 µM | 1.08
[1], 0.04115 µM | 1.07
[1], 0.1235 µM | 1.05
[1], 0.3704 µM | 1.04
[1], 1.111 µM | 0.984
[1], 3.333 µM | 0.9812
[1], 10 µM | 0.918
[2], 0.00017 µM | 1.1
[2], 0.00051 µM | 1.07
[2], 0.00152 µM | 1.07
[2], 0.00457 µM | 1.04
[2], 0.01372 µM | 1.03
[2], 0.04115 µM | 1
[2], 0.1235 µM | 0.972
[2], 0.3704 µM | 0.956
[2], 1.111 µM | 0.908
[2], 3.333 µM | 0.933
[2], 10 µM | 0.861
[3], 0.00017 µM | 1.06
[3], 0.00051 µM | 1.08
[3], 0.00152 µM | 1.07
[3], 0.00457 µM | 1.1
[3], 0.01372 µM | 1.069
[3], 0.04115 µM | 1.07
[3], 0.1235 µM | 1.06
[3], 0.3704 µM | 1.09
[3], 1.111 µM | 1.07
[3], 3.333 µM | 1.097
[3], 10 µM | 1.02
[4], 0.00017 µM | 1.05
[4], 0.00051 µM | 1.07
[4], 0.00152 µM | 1.09
[4], 0.00457 µM | 1.07
[4], 0.01372 µM | 1.08
[4], 0.04115 µM | 1.07
[4], 0.1235 µM | 1.07
[4], 0.3704 µM | 1.06
[4], 1.111 µM | 1.03
[4], 3.333 µM | 1.01
[4], 10 µM | 0.993
[5], 0.00017 µM | 1.11
[5], 0.00051 µM | 1.112
[5], 0.00152 µM | 1.1
[5], 0.00457 µM | 1.114
[5], 0.01372 µM | 1.12
[5], 0.04115 µM | 1.113
[5], 0.1235 µM | 1.108
[5], 0.3704 µM | 1.1
[5], 1.111 µM | 1.075
[5], 3.333 µM | 1.08
[5], 10 µM | 1.07
[6], 0.00017 µM | 1.01
[6], 0.00051 µM | 1.03
[6], 0.00152 µM | 1.02
[6], 0.00457 µM | 1.02
[6], 0.01372 µM | 1.02
[6], 0.04115 µM | 1.01
[6], 0.1235 µM | 1.03
[6], 0.3704 µM | 1.01
[6], 1.111 µM | 1.01
[6], 3.333 µM | 1
[6], 10 µM | 0.992
[7], 0.00017 µM | 1.08
[7], 0.00051 µM | 1.12
[7], 0.00152 µM | 1.13
[7], 0.00457 µM | 1.12
[7], 0.01372 µM | 1.14
[7], 0.04115 µM | 1.13
[7], 0.1235 µM | 1.11
[7], 0.3704 µM | 1.1
[7], 1.111 µM | 1.1
[7], 3.333 µM | 1.12
[7], 10 µM | 1.12
[8], 0.00017 µM | 1.02
[8], 0.00051 µM | 1.01
[8], 0.00152 µM | 1.02
[8], 0.00457 µM | 1.01
[8], 0.01372 µM | 0.994
[8], 0.04115 µM | 1.02
[8], 0.1235 µM | 1.02
[8], 0.3704 µM | 0.993
[8], 1.111 µM | 1
[8], 3.333 µM | 1.01
[8], 10 µM | 0.986
[9], 0.00017 µM | 1.07
[9], 0.00051 µM | 1.05
[9], 0.00152 µM | 1.08
[9], 0.00457 µM | 1.04
[9], 0.01372 µM | 1.02
[9], 0.04115 µM | 1.05
[9], 0.1235 µM | 1.03
[9], 0.3704 µM | 0.966
[9], 1.111 µM | 1.01
[9], 3.333 µM | 0.987
[9], 10 µM | 0.827
[10], 0.00017 µM | 1.17
[10], 0.00051 µM | 1.19
[10], 0.00152 µM | 1.21
[10], 0.00457 µM | 1.14
[10], 0.01372 µM | 1.16
[10], 0.04115 µM | 1.14
[10], 0.1235 µM | 1.17
[10], 0.3704 µM | 1.11
[10], 1.111 µM | 1.16
[10], 3.333 µM | 1.09
[10], 10 µM | 1.1
[11], 0.00017 µM | 1.1
[11], 0.00051 µM | 1.09
[11], 0.00152 µM | 1.09
[11], 0.00457 µM | 1.09
[11], 0.01372 µM | 1.09
[11], 0.04115 µM | 1.1
[11], 0.1235 µM | 1.08
[11], 0.3704 µM | 1.05
[11], 1.111 µM | 1.07
[11], 3.333 µM | 1.07
[11], 10 µM | 1.03
[12], 0.00017 µM | 1.01
[12], 0.00051 µM | 0.987
[12], 0.00152 µM | 0.999
[12], 0.00457 µM | 0.97
[12], 0.01372 µM | 0.956
[12], 0.04115 µM | 0.944
[12], 0.1235 µM | 0.949
[12], 0.3704 µM | 0.953
[12], 1.111 µM | 0.969
[12], 3.333 µM | 0.944
[12], 10 µM | 0.891

O=C1NC(=O)[C@@H](c2cn3c4c(cccc24)CCC3)[C@@H]1c1c[nH]c2ccccc12 [Tivantinib]
Details | relative viability
[1], 0.00017 µM | 1
[1], 0.00051 µM | 1.01
[1], 0.00152 µM | 1.03
[1], 0.00457 µM | 1.03
[1], 0.01372 µM | 1.02
[1], 0.04115 µM | 0.982
[1], 0.1235 µM | 1.05
[1], 0.3704 µM | 0.941
[1], 1.111 µM | 0.573
[1], 3.333 µM | 0.534
[1], 10 µM | 0.367
[2], 0.00017 µM | 0.901
[2], 0.00051 µM | 0.924
[2], 0.00152 µM | 0.917
[2], 0.00457 µM | 0.899
[2], 0.01372 µM | 0.916
[2], 0.04115 µM | 0.865
[2], 0.1235 µM | 0.864
[2], 0.3704 µM | 0.862
[2], 1.111 µM | 0.599
[2], 3.333 µM | 0.621
[2], 10 µM | 0.564
[3], 0.00017 µM | 1.047
[3], 0.00051 µM | 1.02
[3], 0.00152 µM | 1.03
[3], 0.00457 µM | 1.04
[3], 0.01372 µM | 1.01
[3], 0.04115 µM | 1.04
[3], 0.1235 µM | 1.03
[3], 0.3704 µM | 1.02
[3], 1.111 µM | 0.287
[3], 3.333 µM | 0.128
[3], 10 µM | 0.0702
[4], 0.00017 µM | 1.03
[4], 0.00051 µM | 1.03
[4], 0.00152 µM | 1.05
[4], 0.00457 µM | 1.04
[4], 0.01372 µM | 1.05
[4], 0.04115 µM | 1.01
[4], 0.1235 µM | 0.983
[4], 0.3704 µM | 0.791
[4], 1.111 µM | 0.271
[4], 3.333 µM | 0.25
[4], 10 µM | 0.176
[5], 0.00017 µM | 1.036
[5], 0.00051 µM | 1.04
[5], 0.00152 µM | 1.036
[5], 0.00457 µM | 1.03
[5], 0.01372 µM | 1.04
[5], 0.04115 µM | 1.04
[5], 0.1235 µM | 1.04
[5], 0.3704 µM | 1.05
[5], 1.111 µM | 0.541
[5], 3.333 µM | 0.487
[5], 10 µM | 0.374
[6], 0.00017 µM | 0.948
[6], 0.00051 µM | 0.967
[6], 0.00152 µM | 0.986
[6], 0.00457 µM | 1
[6], 0.01372 µM | 1
[6], 0.04115 µM | 1.01
[6], 0.1235 µM | 0.977
[6], 0.3704 µM | 0.94
[6], 1.111 µM | 0.129
[6], 3.333 µM | 0.071
[6], 10 µM | 0.0364
[7], 0.00017 µM | 1.05
[7], 0.00051 µM | 1.09
[7], 0.00152 µM | 1.09
[7], 0.00457 µM | 1.1
[7], 0.01372 µM | 1.12
[7], 0.04115 µM | 1.04
[7], 0.1235 µM | 1.04
[7], 0.3704 µM | 0.81
[7], 1.111 µM | 0.371
[7], 3.333 µM | 0.219
[7], 10 µM | 0.267
[8], 0.00017 µM | 1
[8], 0.00051 µM | 1.01
[8], 0.00152 µM | 0.972
[8], 0.00457 µM | 1.002
[8], 0.01372 µM | 1
[8], 0.04115 µM | 0.965
[8], 0.1235 µM | 0.887
[8], 0.3704 µM | 0.5799
[8], 1.111 µM | 0.497
[8], 3.333 µM | 0.385
[8], 10 µM | 0.301
[9], 0.00017 µM | 0.982
[9], 0.00051 µM | 0.9442
[9], 0.00152 µM | 0.985
[9], 0.00457 µM | 0.96
[9], 0.01372 µM | 0.99
[9], 0.04115 µM | 0.963
[9], 0.1235 µM | 0.955
[9], 0.3704 µM | 0.88
[9], 1.111 µM | 0.666
[9], 3.333 µM | 0.45
[9], 10 µM | 0.453
[10], 0.00017 µM | 1.15
[10], 0.00051 µM | 1.119
[10], 0.00152 µM | 1.16
[10], 0.00457 µM | 1.123
[10], 0.01372 µM | 1.09
[10], 0.04115 µM | 1.13
[10], 0.1235 µM | 1.1
[10], 0.3704 µM | 0.961
[10], 1.111 µM | 0.783
[10], 3.333 µM | 0.601
[10], 10 µM | 0.636
[11], 0.00017 µM | 0.993
[11], 0.00051 µM | 0.973
[11], 0.00152 µM | 1
[11], 0.00457 µM | 0.996
[11], 0.01372 µM | 0.979
[11], 0.04115 µM | 1.008
[11], 0.1235 µM | 0.967
[11], 0.3704 µM | 0.933
[11], 1.111 µM | 0.473
[11], 3.333 µM | 0.485
[11], 10 µM | 0.467
[12], 0.00017 µM | 0.934
[12], 0.00051 µM | 0.928
[12], 0.00152 µM | 0.95
[12], 0.00457 µM | 0.924
[12], 0.01372 µM | 0.911
[12], 0.04115 µM | 0.894
[12], 0.1235 µM | 0.861
[12], 0.3704 µM | 0.716
[12], 1.111 µM | 0.327
[12], 3.333 µM | 0.271
[12], 10 µM | 0.28
